Measurements from patent publication US20240294543A1, “CYCLOHEPTA-THIENO-DIAZEPINE DERIVATIVES AS GABA A GAMMA1 PAM” (Hoffmann-La Roche Inc., priority 2021, published 2024).

Biological target: h-GABA-A α2β2γ1 (Homo sapiens (Human), UniProt P47869+Q8N1C3)
Experiment: Two-electrode voltage clamp electrophysiology in Xenopus oocytes expressing GABAA receptors
Type: cell-based
Details: for Efficacy (GABA) %: % modulation of GABA EC20 = 100*(Fold increase−1), compound at about 30-fold its Ki α2β2γ1; for Fold increase h-GABA-A α2β2γ1 oocyte @ 30-fold Ki: Xenopus oocytes, GABA EC20, compound at about 30-fold its Ki α2β2γ1
Description: Xenopus Oocytes Preparation Xenopus laevis oocytes at maturation stages V-VI were used for the expression of cloned mRNA encoding GABAA receptor subunits. Oocytes ready for RNA micro-injection were bought from Ecocyte, Castrop-Rauxel, Germany and stored in modified Barth's medium (composition in mM: NaCl 88, KCl 1, NaHCO3 2.4, HEPES 10, MgSO4 0.82, CaNO3 0.33, CaCl2 0.33, pH=7.5) at 20° C. until the experiment.
Oocytes were plated in 96-well plates for microinjection using the Roboinject automated instrument (MultiChannelSystems, Reutlingen, Germany). Approximately 50 nL of an aqueous solution containing the RNA transcripts for the subunits of the desired GABAA receptor subtype was injected into each oocyte. […] Oocytes were kept in modified Barth's medium (composition in mM: NaCl 88, KCl 1, NaHCO3 […], HEPES 10, MgSO4 0.82, CaNO3 0.33, CaCl2 0.33, pH=7.5) at 20° C. until the experiment.
Electrophysiological experiments were performed using the Roboocyte instrument (MultiChannelSystems, Reutlingen, Germany) on days 3 to 5 after the micro-injection of mRNA. During the experiment the oocytes were constantly superfused by a solution containing (in mM) NaCl 90, KCl 1, HEPES 5, MgCl2 1, CaCl2 1 (pH 7.4). Oocytes were impaled by two glass microelectrodes (resistance: 0.5-0.8 MQ) which were filled with a solution containing KCl 1M+K-acetate 1.5 M and voltage-clamped to −80 mV. The recordings were performed at room temperature using the Roboocyte two-electrode voltage clamp system (Multichannelsystem). After an initial equilibration period of 1.5 min GABA was added for 1.5 min at a concentration evoking approximately 20% of a maximal current response (EC20). After another rest interval of 2.5 min GABA was again added evoking a response of similar amplitude and shape. […] Current traces were recorded at a digitization rate of 10 Hz during and shortly before and after the GABA application.
Each compound and concentration was tested on at least 3 oocytes. Different oocytes were used for different compound concentrations.
For the analysis, the digitized current traces of the first and second GABA response were superimposed and, if necessary, rescaled to equal maximal amplitudes. The ratio between the two responses during the time interval of test compound application was calculated point by point. The extremum of the resulting “ratio trace” was taken as the efficacy (“Fold increase”) of the compound expressed as “% modulation of GABA EC20” (100*(Fold increase−1)).

SMILES | Efficacy (GABA) % [%] | Fold increase h-GABA-A α2β2γ1 oocyte @ 30-fold Ki
C[C@@H]1N=C(c2c(F)cccc2F)c2c(sc3c2COC[C@H](C)O3)-n2nc(C(=O)NCCO)nc21 [Example 53, (7S,15S)-9-(2,6-difluorophenyl)-N-(2-hydroxyethyl)-7,15-dimethyl-13,16-dioxa-18-thia-2,3,5,8-tetrazatetracyclo[8.8.0.02,6.011,17]octadeca-1(10),3,5,8,11(17)-pentaene-4-carboxamide] | 237 | 3.37
CCc1nnc2n1-c1sc3c(c1C(c1c(F)cccc1F)=N[C@H]2C)COCCO3 [Example 42, (7S)-9-(2,6-difluorophenyl)-3-ethyl-7-methyl-13,16-dioxa-18-thia-2,4,5,8-tetrazatetracyclo[8.8.0.02,6.011,17]octadeca-1(10),3,5,8,11(17)-pentaene] | 137 | 2.37
Cc1nnc2n1-c1sc3c(c1C(c1c(F)cccc1F)=N[C@H]2C)CCCCC3O (mixture of isomers) [Example 9, (7S,16RS)-9-(2,6-difluorophenyl)-3,7-dimethyl-18-thia-2,4,5,8-tetrazatetracyclo[8.8.0.02,6.011,17]octadeca-1(10),3,5,8,11(17)-pentaen-16-ol] | 96 | 1.96
CCc1nc2n(n1)-c1sc3c(c1C(c1c(F)cccc1F)=N[C@H]2C)COC[C@H](C)O3 [Example 49, (7S,15S)-9-(2,6-difluorophenyl)-4-ethyl-7,15-dimethyl-13,16-dioxa-18-thia-2,3,5,8-tetrazatetracyclo[8.8.0.02,6.011,17]octadeca-1(10),3,5,8,11(17)-pentaene] | 131 | 2.31
Cc1nnc2n1-c1sc3c(c1C(c1c(F)cccc1F)=N[C@H]2C)CCCC(O)C3 (mixture of isomers) [Example 13, (7S,15RS)-9-(2,6-difluorophenyl)-3,7-dimethyl-18-thia-2,4,5,8-tetrazatetracyclo[8.8.0.02,6.011,17]octadeca-1(10),3,5,8,11(17)-pentaen-15-ol] | 80 | 1.80
C[C@@H]1N=C(c2c(F)cccc2F)c2c(sc3c2COCCO3)-n2nc(C(=O)N3CC(OC(C)(C)C)C3)nc21 [Example 29, (3-tert-butoxyazetidin-1-yl)-[(7S)-9-(2,6-difluorophenyl)-7-methyl-13,16-dioxa-18-thia-2,3,5,8-tetrazatetracyclo[8.8.0.02,6.011,17]octadeca-1(10),3,5,8,11(17)-pentaen-4-yl]methanone] | 79 | 1.79
C[C@@H]1N=C(c2c(F)cccc2F)c2c(sc3c2COCCO3)-n2c(C(F)F)nnc21 [Example 48, (7S)-3-(difluoromethyl)-9-(2,6-difluorophenyl)-7-methyl-13,16-dioxa-18-thia-2,4,5,8-tetrazatetracyclo[8.8.0.02,6.011,17]octadeca-1(10),3,5,8,11(17)-pentaene] | 144 | 2.44
C[C@@H]1N=C(c2c(F)cccc2F)c2c(sc3c2CCCCC3)-n2c(C3CC3)nnc21 [Example 3, (7S)-3-cyclopropyl-9-(2,6-difluorophenyl)-7-methyl-18-thia-2,4,5,8-tetrazatetracyclo[8.8.0.02,6.011,17]octadeca-1(10),3,5,8,11(17)-pentaene] | 91 | 1.91
C[C@@H]1N=C(c2c(F)cccc2F)c2c(sc3c2CCCCC3)-n2c(-c3cccnn3)nnc21 [Example 4, (7S)-9-(2,6-difluorophenyl)-7-methyl-3-pyridazin-3-yl-18-thia-2,4,5,8-tetrazatetracyclo[8.8.0.02,6.011,17]octadeca-1(10),3,5,8,11(17)-pentaene] | 119 | 2.19
C[C@@H]1N=C(c2c(F)cccc2F)c2c(sc3c2COCCO3)-n2nc(C(=O)NC3CC3)nc21 [Example 36] | 89 | 1.89
C[C@@H]1N=C(c2c(F)cccc2F)c2c(sc3c2COCCO3)-n2c(C3CC3)nnc21 [Example 43, (7S)-3-cyclopropyl-9-(2,6-difluorophenyl)-7-methyl-13,16-dioxa-18-thia-2,4,5,8-tetrazatetracyclo[8.8.0.02,6.011,17]octadeca-1(10),3,5,8,11(17)-pentaene] | 94 | 1.94
C[C@@H]1N=C(c2c(F)cccc2F)c2c(sc3c2COC[C@H](C)O3)-n2nc(C(=O)N3CC(OC(C)(C)C)C3)nc21 [Example 41, (3-tert-butoxyazetidin-1-yl)-[(7S,15S)-9-(2,6-difluorophenyl)-7,15-dimethyl-13,16-dioxa-18-thia-2,3,5,8-tetrazatetracyclo[8.8.0.02,6.011,17]octadeca-1(10),3,5,8,11(17)-pentaen-4-yl]methanone] | 167 | 2.67
C[C@@H]1N=C(c2c(F)cccc2F)c2c(sc3c2COCCO3)-n2nc(C(=O)NCCF)nc21 [Example 25, (7S)-9-(2,6-difluorophenyl)-N-(2-fluoroethyl)-7-methyl-13,16-dioxa-18-thia-2,3,5,8-tetrazatetracyclo[8.8.0.02,6.011,17]octadeca-1(10),3,5,8,11(17)-pentaene-4-carboxamide] | 99 | 1.99
CC(C)c1nnc2n1-c1sc3c(c1C(c1c(F)cccc1F)=N[C@H]2C)COCCO3 [Example 44, (7S)-9-(2,6-difluorophenyl)-3-isopropyl-7-methyl-13,16-dioxa-18-thia-2,4,5,8-tetrazatetracyclo[8.8.0.02,6.011,17]octadeca-1(10),3,5,8,11(17)-pentaene] | 116 | 2.16
C[C@@H]1N=C(c2c(F)cccc2F)c2c(sc3c2COCCC3)-n2nc(C(=O)N[C@H]3C[C@H](O)C3)nc21 [Example 63, (7S)-9-(2,6-difluorophenyl)-N-(trans-3-hydroxycyclobutyl)-7-methyl-13-oxa-18-thia-2,3,5,8-tetrazatetracyclo[8.8.0.02,6.011,17]octadeca-1(10),3,5,8,11(17)-pentaene-4-carboxamide] | 169 | 2.69
C[C@@H]1N=C(c2c(F)cccc2F)c2c(sc3c2COCCO3)-n2cc(C(=O)NCC3(O)CC3)nc21 [Example 65, (7S)-9-(2,6-difluorophenyl)-N-[(1-hydroxycyclopropyl)methyl]-7-methyl-13,16-dioxa-18-thia-2,5,8-triazatetracyclo[8.8.0.02,6.011,17]octadeca-1(10),3,5,8,11(17)-pentaene-4-carboxamide] | 169 | 2.69
